Key:
genetically obese mice = assay: carcass lipid of genetically obese mice after daily oral dosing for 28 days (anti-obesity); assay type: in vivo, mouse (genetically obese); details: for g - lipid per mouse, Treated: daily for 28 days; for anti-obesity activity (in words): general statement, no dose given
Description: (i) The compounds and a comparison compound (salbutamol) were dosed daily in water or carboxymethylcellulose suspension to genetically obese mice by oral gavage for 28 days. At the end of that time the carcass composition was determined.

blood glucose = assay: hypoglycaemic activity: reduction in area under blood glucose curve after glucose load in fasted mice; assay type: in vivo, female CFLP mice; details: for inhibition in vivo at 5 mg/kg / inhibition in vivo at 20 mg/kg: Mus musculus, po, 2 h; for anti-hyperglycaemic activity (in words): general statement, no dose given; for inhibition in vivo at 20 mg/kg: 20 mg/kg po
Description: Female CFLP mice, weighing approximately 25 g, were fasted for 24 hours prior to the study. The compounds under study were dosed orally (20 mg and 5 mg/kg) to each of 8 mice. 30 minutes later a blood sample ([…]) was obtained from the tail for the analysis of blood glucose. Immediately after taking this blood sample, each mouse was given a glucose load (1 g/kg body weight sub-cutaneously). Blood samples were then obtained from each mouse at 30 minute intervals for 120 minutes.
Compounds that produced a significant (P<0.05) reduction of blood glucose, compared with control mice given water, at any time interval were considered active. The area under the blood glucose curve over the 2 hour period after giving the glucose load was calculated for each compound and compared with the value for control animals. Thus a compound would give a 100% reduction in the area under the blood glucose curve if the blood glucose was maintained at the same level as in untreated fasted animals. Reduction in the glucose curve of more than 100% indicate that a compound, in spite of being given a glucose load, maintained blood glucose levels below that found in control fasted mice.

[1] = 10 mg/kg po, control 18.3 ± 0.6 (Ex. 7), 16.5 ± 0.7 (Ex. 16, 21)
[2] = 5 mg/kg po, 30 min before glucose load 1 g/kg sc, 2 hour period, versus control mice
[3] = 30 min before glucose load 1 g/kg sc, 2 hour period, versus control mice

| Structure (SMILES) | anti-obesity activity (in words) (genetically obese mice) | inhibition in vivo at 5 mg/kg (blood glucose; [2]) [%] | anti-hyperglycaemic activity (in words) (blood glucose) | other results |
| --- | --- | --- | --- | --- |
| COC(=O)c1ccc(CCC(C)NCC(O)c2ccc(O)c(CO)c2)cc1 (centres unmarked) [Example 7] | particularly worthy of mention in view of their anti-obesity activity | 110 | particularly worthy of mention in view of their anti-hyperglycaemic activity | g - lipid per mouse, Treated (genetically obese mice; [1]): 14.3 ± 0.4 g |
| COC(=O)c1ccc(OCC(C)NCC(O)c2ccc(O)c(CO)c2)cc1 (centres unmarked) [Example 8, N-[2-(4-Carbomethoxyphenoxy)-1-methylethyl]-2-hydroxy-2-(4-hydroxy-3-hydroxymethylphenyl)ethanamine] | – | – | – | g - lipid per mouse, Treated (genetically obese mice; 21 mg/kg po, control 21.9 ± 0.5): 19.6 ± 0.4 g |
| COC(=O)c1ccc(CC(C)NCC(O)c2ccccc2)c(OC)c1 (centres unmarked) [Example 24, N-(2-[4-Carbomethoxy-2-methoxyphenyl]-1-methylethyl)-2hydroxy-2-phenylethanamine] | particularly worthy of mention in view of their anti-obesity activity | – | – | – |
| CC(Cc1ccc(C(=O)O)cc1)NCC(O)c1ccccc1 (centres unmarked) [Example 44, N-[2-(4-Carboxyphenyl)-1-methylethyl]-2-hydroxy-2-phenylethanamine] | particularly worthy of mention in view of their anti-obesity activity | – | – | – |
| COC(=O)c1ccc(C[C@H](C)NCC(O)c2ccc(O)c(CO)c2)cc1 (stereo partly drawn) [Example 36, N-(1-(S)-2-[4-Carbomethoxyphenyl]-1-methylethyl)-2-hydroxy-2-(4-hydroxy-3-hydroxymethylphenyl)ethanamine] | – | 79 | particularly worthy of mention in view of their anti-hyperglycaemic activity | – |
| COC(=O)c1ccc(CC(C)NCC(O)c2ccc(O)c(CO)c2)cc1C (centres unmarked) [Example 14, N-[2-(4-Carbomethoxy-3-methylphenyl)-1-methylethyl]-2-hydroxy-2-(4-hydroxy-3-hydroxymethylphenyl)ethanamine] | particularly worthy of mention in view of their anti-obesity activity | – | – | g - lipid per mouse, Treated (genetically obese mice; 10.5 mg/kg po, control 17.0 ± 0.67): 14.3 ± 0.61 g |
| COC(=O)c1ccc(CC(C)NCC(O)c2ccc(O)c(NC(C)=O)c2)cc1 (centres unmarked) [Example 38, N-(2-[4-Carbomethoxyphenyl]-1-methylethyl)-2-(3-acetamido-4-hydroxyphenyl)-2-hydroxyethanamine] | – | 59 | – | – |
| COC(=O)c1ccc(CC(C)NCC(O)c2ccc(O)c(CO)c2)cc1OC (centres unmarked) [Example 10, N-[2-(4-Carbomethoxy-3-methoxyphenyl)-1-methylethyl]-2-hydroxy-2-(4-hydroxy-3-hydroxymethylphenyl)ethanamine] | particularly worthy of mention in view of their anti-obesity activity | – | – | – |
| COC(=O)c1ccc(CCNCC(O)c2ccccc2)cc1 (centres unmarked) [Example 25, N-(2-[4-Carbomethoxyphenyl]ethyl)-2-hydroxy-2-phenylethanamine] | – | 179 | particularly worthy of mention in view of their anti-hyperglycaemic activity | – |
| CC(Cc1ccc(C(=O)OC(C)C)cc1)NCC(O)c1ccc(O)c(CO)c1 (centres unmarked) [Example 13, N-[2-(4-Carboisopropoxyphenyl)-1-methylethyl]-2-hydroxy-2-(4-hydroxy-3-hydroxymethylphenyl)ethanamine] | particularly worthy of mention in view of their anti-obesity activity | – | – | – |
| COC(=O)c1ccc(CC(C)NCC(O)c2ccc(O)cc2Cl)cc1 (centres unmarked) [Example 33, N-(2-[4-Carbomethoxyphenyl]-1-methylethyl)-2-(2-chloro-4-hydroxyphenyl)-2-hydroxyethanamine] | – | 88 | particularly worthy of mention in view of their anti-hyperglycaemic activity | – |
| COC(=O)c1ccc(CC(C)NCC(O)c2ccccc2)c(Cl)c1 (centres unmarked) [Example 23, N-(2-[4-Carbomethoxy-2-chlorophenyl]-1-methylethyl)-2-hydroxy-2-phenylethanamine] | particularly worthy of mention in view of their anti-obesity activity | – | – | – |
| COC(=O)c1ccc(C[C@@H](C)NCC(O)c2ccc(O)c(CO)c2)cc1 (stereo partly drawn) [Example 35, N-(1-(R)-2-[4-Carbomethoxyphenyl]-1-methylethyl)-2-hydroxy-2-(4-hydroxy-3-hydroxymethylphenyl)ethanamine] | particularly worthy of mention in view of their anti-obesity activity | – | – | – |
| COC(=O)c1ccc(C(C)NCC(O)c2ccc(O)c(CO)c2)cc1 (centres unmarked) [Example 18] | – | – | – | inhibition in vivo at 20 mg/kg (blood glucose; [3]): 25% |
| COC(=O)c1ccc(CC(C)NCC(O)c2ccc(O)c(CO)c2)c(OC)c1 (centres unmarked) [Example 12, N-[2-(4-Carbomethoxy-2-methoxyphenyl)-1-methylethyl]-2-hydroxy-2-(4-hydroxy-3-hydroxymethylphenyl)ethanamine] | particularly worthy of mention in view of their anti-obesity activity | 168 | particularly worthy of mention in view of their anti-hyperglycaemic activity | g - lipid per mouse, Treated (genetically obese mice; 11 mg/kg po, control 18.9 ± 0.66 (Ex. 12), 17.0 ± 0.67 (Ex. 17)): 16.2 ± 0.42 g |
| COC(=O)c1ccc(CC(C)NCC(O)c2ccc(O)c(CO)c2)cc1 (centres unmarked) [21 (mp 140.5-143.5°), N-[2-(4-carbomethoxyphenyl)-1-methylethyl]-2-hydroxy-2-(4-hydroxy-3-hydroxymethylphenyl) ethanamine] | – | – | – | g - lipid per mouse, Treated (genetically obese mice; [1]): 12.7 ± 0.8 g; Reduction in area under blood glucose curve (%) (blood glucose; [2]): 153% |
| CCOC(=O)c1ccc(CC(C)NCC(O)c2ccc(O)c(CO)c2)cc1 (centres unmarked) [Example 16, N-[2-(4-Carboethoxyphenyl)-1-methylethyl]-2-hydroxy-2-(4-hydroxy-3-hydroxymethylphenyl) ethanamine] | particularly worthy of mention in view of their anti-obesity activity | – | – | g - lipid per mouse, Treated (genetically obese mice; [1]): 12.9 ± 0.8 g |
| COC(=O)c1ccc(CC(C)NCC(O)c2ccc(O)c(CS(C)(=O)=O)c2)cc1 (centres unmarked) [Example 39, N-(2-[4-Carbomethoxyphenyl]-1-methylethyl)-2-(4-hydroxy-3-methylsulphonylmethylphenyl)-2-hydroxyethanamine] | – | 83 | particularly worthy of mention in view of their anti-hyperglycaemic activity | – |
| COC(=O)c1ccc(CC(C)(C)NCC(O)c2ccccc2)cc1 (centres unmarked) [Example 26, N-(2-[4-Carbomethoxyphenyl]-1,1-dimethylethyl)-2-hydroxy-2-phenylethanamine] | particularly worthy of mention in view of their anti-obesity activity | – | – | g - lipid per mouse, Treated (genetically obese mice; 9 mg/kg po, control 18.9 ± 0.66): 16.4 ± 1.2 g |
| COC(=O)c1ccc(CC(C)(C)NCC(O)c2ccc(O)c(CO)c2)cc1 (centres unmarked) [Example 31, N-(2-[4-Carbomethoxyphenyl]-1,1-dimethylethyl)-2-hydroxy-2-(4-hydroxy-3-hydroxymethylphenyl) ethanamine] | – | 139 | particularly worthy of mention in view of their anti-hyperglycaemic activity | – |
| COC(=O)c1ccc(CC(C)NCC(O)c2ccc(O)c(N)c2)cc1 (centres unmarked) [Example 34] | – | – | – | inhibition in vivo at 20 mg/kg (blood glucose; [3]): 61% |
| COC(=O)c1ccc(CC(C)NCC(O)c2ccc(O)c(O)c2)cc1 (centres unmarked) [Example 19, N-(2-[4-Carbomethoxyphenyl]-1-methylethyl)-2-(3,4-dihydroxyphenyl)-2-hydroxyethanamine] | – | – | particularly worthy of mention in view of their anti-hyperglycaemic activity | – |
| COC(=O)c1ccc(CC(C)NCC(O)c2ccc(O)c(CO)c2)c(F)c1 (centres unmarked) [Example 9, N-[2-(4-Carbomethoxy-2-fluorophenyl)-1-methylethyl]-2-hydroxy-2-(4-hydroxy-3-hydroxymethylphenyl) ethanamine] | – | 47 | – | – |
| CC(C)(C)NCC(O)c1ccc(O)c(CO)c1 (centres unmarked) [Salbutamol, reference compound] | – | – | – | g - lipid per mouse, Treated (genetically obese mice; 25 mg/kg po, control 23.0 ± 0.3): 23.1 ± 0.6 g |
| COC(=O)c1ccc(CCNCC(O)c2ccccc2Cl)cc1 (centres unmarked) [Example 27, N-(2-[4-Carbomethoxyphenyl]ethyl)-2-(2-chlorophyenyl)-2-hydroxyethanamine] | – | 38 | – | – |
| COC(=O)c1ccc(CC(C)NCC(O)c2ccc(O)c(NS(C)(=O)=O)c2)cc1 (centres unmarked) [Example 37, N-(2-[4-Carbomethoxyphenyl]-1-methylethyl)-2-(4-hydroxy-3-methanesulphonamidophenyl)-2-hydroxyethanamine] | particularly worthy of mention in view of their anti-obesity activity | – | – | – |
